Test results from patent publication US8946478B2, “Benzamide derivative with anticancer activity and preparation method and use thereof” (Zhejiang Hisun Pharmaceutical Co., Ltd., priority 2010, dated 2015).

What was measured:
Assay in all cases: In vitro SRB tumor cell growth inhibition (GI50)
Assay type in all cases: cell-based
[1] = test system: human breast cancer cell strain MCF-7; conditions: Homo sapiens, MCF7, 48 h, MCF-7 cells
[2] = test system: human breast cancer cell strain MDA-MB435; conditions: Homo sapiens, MDA-MB-435, 48 h, MDA-MB435 cells
[3] = test system: human colon cancer cell strain Colo205; conditions: Colo 205 cells, 48 h
[4] = test system: human colon cancer cell strain HCT-116; conditions: Homo sapiens, HCT-116, 48 h, HCT-116 cells
human hepatoma HepG 2 = conditions: HepG2, HepG 2 cells, 48 h
human leukemia HL-60 = conditions: Homo sapiens, HL-60, 48 h, HL-60 cells
human leukemia K562 = conditions: Homo sapiens, K562, 48 h, K562 cells
[5] = test system: human lung cancer cell strain 95D; conditions: Homo sapiens, 95-D, 48 h, 95D cells
[6] = test system: human lung cancer cell strain A549; conditions: A549 cells, 48 h
Outline: (§1)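 A549 and PANC-1 seeded at 10000 cells/well, OVCAR-5 and NCI460 at 5000 cells/well in DMEM/10% FBS, pre-incubated 24 h at 37 °C. Compounds added for 48 h, triplicate; cells TCA-fixed, SRB-stained, absorbance read at 515 nm with 690 nm blank. GI50 from dose-response curve, time-zero wells included.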

[7] = test system: human lung cancer cell strain NCI-460; conditions: Homo sapiens, NCI-460, 48 h, NCI-460 cells
Outline: as §1

[8] = test system: human ovarian cancer cell strain HO8910; conditions: HO-8910, HO8910 cells, 48 h
[9] = test system: human ovarian cancer cell strain OVCAR-5; conditions: OVCAR-5 cells, 48 h
Outline: as §1

[10] = test system: human ovarian cancer cell strain OVCAR-8; conditions: Homo sapiens, OVCAR-8, 48 h, OVCAR-8 cells
[11] = test system: human ovarian cancer cell strain SKOV-3; conditions: SK-OV-3, SKOV-3 cells, 48 h
[12] = test system: human pancreatic cancer PANC-1; conditions: Homo sapiens, PANC-1, 48 h, PANC-1 cells
Outline: as §1

[13] = test system: human prostate cancer BXPC-3; conditions: BXPC-3 cells, 48 h
[14] = test system: human prostate cancer DU145; conditions: Homo sapiens, DU-145, 48 h, DU145 cells
[15] = test system: human uterine cancer Hela; conditions: Homo sapiens, HeLa, 48 h, Hela cells

| SMILES | GI50 [1] | GI50 [2] | GI50 [3] | GI50 [4] | GI50 (human hepatoma HepG 2) | GI50 (human leukemia HL-60) | GI50 (human leukemia K562) | GI50 [5] | GI50 [6] | GI50 [7] | GI50 [8] | GI50 [9] | GI50 [10] | GI50 [11] | GI50 [12] | GI50 [13] | GI50 [14] | GI50 [15] |
| --- | --- | --- | --- | --- | --- | --- | --- | --- | --- | --- | --- | --- | --- | --- | --- | --- | --- | --- |
| NC(=O)c1ccc(I)c([N+](=O)[O-])c1 [BSI-201, 4-iodo-3-nitrobenzamide, reference compound] | 40.1 µM | 64.4 µM | 76 µM | 64.7 µM | > 100 µM | 74.1 µM | 44.6 µM | 53.8 µM | 105 µM | > 100 µM | 72.6 µM | 61.1 µM | 103 µM | 38.5 µM | 25.5 µM | 105 µM | 86.6 µM | 64.7 µM |
| C#Cc1ccc(C(N)=O)cc1[N+](=O)[O-] [Compound I-1, 4-ethynyl-3-nitrobenzamide] | 2.47 µM | 2.05 µM | 4.84 µM | 1.9 µM | 8.73 µM | 2.11 µM | 3.02 µM | 1.88 µM | 4.56 µM | 10.9 µM | 1.47 µM | 4.29 µM | 11.7 µM | 3.17 µM | 7.41 µM | 4.68 µM | 4.78 µM | 5.28 µM |
